In brackets after ≈: the same amount, converted by molar mass.
Tests used:
Assay type in all cases: physicochemical
[1] = In vitro therapeutic agent release (USP Dissolution Test Method II, 0.05M isotonic phosphate buffer pH 6.0 with 30 weight percent PEG 400); details: for In vitro release of 17 β-estradiol: Example 17 carrier (Table XIX, mannitol); for Therapeutic Agent Release Parameter, T, 20% / Therapeutic Agent Release Parameter, T, 50% / Therapeutic Agent Release Parameter, T, 75% / Therapeutic Agent Release Parameter, T, 90%: Example 7 carrier (Table VII), 20 mg agent, agent:PEG 8000 1:2; for In vitro release of dehydroepiandrosterone: Example 12 carrier, 5 mg DHEA
Method: Therapeutic agent release studies were conducted using an Erweka dissolution test assembly in compliance with Dissolution Test Method II as described in The United States Pharmacopeia, 24th revision (USP XXIV). Five hundred milliliters of a 0.1M phosphate buffer dissolution fluid was maintained at about 37° C. (about 100° F.) and the […] was rotated at 50 revolutions per minute (rpm). At predetermined time points, samples of approximately 3 milliliters of the test medium were withdrawn from the flasks and immediately replaced with an equivalent volume of blank buffer. Analysis of the samples was performed by ultraviolet spectrophotometry. […] The time to achieve 20%, 50% and 80% by weight dissolution of the piroxicam was estimated from a linear plot of percent dissolved versus time.
Therapeutic agent release testing was conducted by the USP Dissolution Test Method II. The dissolution medium chosen was 500 ml of a 0.05M isotonic phosphate buffer having a 6.0 pH with 30 weight percent PEG 400.
An equivalent of 20 mg of albuterol in a mucosal composition of a albuterol:PEG 8000 weight in a ratio of 1:2 was included in each carrier. […] Plots of weight percent therapeutic agent released versus time were constructed and the drug release parameter T (in hours) for a given weight and percent drug released was calculated from the plots.

[2] = as above; details: for In vitro release of 17 β-estradiol: Example 17 carrier (Table XIX, mannitol); for In vitro release of therapeutic agent: 20 mg piroxicam
[3] = Saturation solubility in phosphate buffer; details: 0.1m phosphate buffer, aqueous buffer

C[C@]12CC[C@@H]3c4ccc(O)cc4CC[C@H]3[C@@H]1CC[C@@H]2O [17 β-estradiol]
In vitro release of therapeutic agent ([1]; Example 10 carrier, 17 β-estradiol, 1 hour): 2.5 weight percent
In vitro release of therapeutic agent ([1]; Example 10 carrier, 17 β-estradiol, 2 hours): 4 weight percent
In vitro release of therapeutic agent ([1]; Example 10 carrier, 17 β-estradiol, 5 hours): 9.5 weight percent
In vitro release of therapeutic agent ([1]; Example 10 carrier, 17 β-estradiol, 24 hours): 46.3 weight percent
In vitro release of 17 β-estradiol ([1]; 5 hours): 9.5 weight percent
In vitro release of 17 β-estradiol ([1]; 10 hours): 15 weight percent
Order of release ([2]; Example 10 carrier, 17 β-estradiol): apparent zero order process
In vitro release of 17 β-estradiol ([2]; 15 hours): 17 weight percent
In vitro release of 17 β-estradiol ([2]; 20 hours): 19.5 weight percent

CC(C)(C)NCC(O)c1ccc(O)c(CO)c1 (stereo not drawn) [Albuterol]
Therapeutic Agent Release Parameter, T, 20% [1]: 0.58 h
Therapeutic Agent Release Parameter, T, 50% [1]: 3.16 h
Therapeutic Agent Release Parameter, T, 75% [1]: 5.67 h
Therapeutic Agent Release Parameter, T, 90% [1]: 6.83 h
Time to release 20% by weight of albuterol ([1]; Example 13 carrier (Table XV)): approximately 0.8 hr
Time to release 50% by weight of albuterol ([1]; Example 13 carrier (Table XV)): ~2.6 h
Time to release 75% by weight of albuterol ([1]; Example 13 carrier (Table XV)): ~6 h
Time to release 90% by weight of albuterol ([1]; Example 13 carrier (Table XV)): ~10.5 h
Time to release 20% by weight of albuterol ([1]; Example 14 carrier (Table XVI)): approximately 1 hr
Time to release 50% by weight of albuterol ([1]; Example 14 carrier (Table XVI)): ~3.5 h
Time to release 75% by weight of albuterol ([1]; Example 14 carrier (Table XVI)): ~8 h
Time to release 90% by weight of albuterol ([1]; Example 14 carrier (Table XVI)): ~15 h
In vitro release of albuterol ([1]; Example 15 carrier (Table XVII), 3 hours): 22 weight percent
In vitro release of albuterol ([1]; Example 15 carrier (Table XVII), 7.5 hours): 50 weight percent
In vitro release of albuterol ([1]; Example 15 carrier (Table XVII), 12 hours): 75 weight percent
In vitro release of albuterol ([1]; Example 15 carrier (Table XVII), 18 hours): 90 weight percent
In vitro release of albuterol ([1]; Example 16 carrier (Table XVIII), 2 hours): 27 weight percent
In vitro release of albuterol ([1]; Example 16 carrier (Table XVIII), 5 hours): 50 weight percent
In vitro release of albuterol ([1]; Example 16 carrier (Table XVIII), 10 hours): 73 weight percent
In vitro release of albuterol ([1]; Example 16 carrier (Table XVIII), 19 hours): 90 weight percent

CC(N)C(O)c1ccccc1 (stereo not drawn) [Phenylpropanolamine]
Therapeutic Agent Release Parameter, T, 20% [1]: 0.58 h
Therapeutic Agent Release Parameter, T, 50% [1]: 2.83 h
Therapeutic Agent Release Parameter, T, 75% [1]: 6.04 h
Therapeutic Agent Release Parameter, T, 90% [1]: 8.42 h

C[C@]12CC[C@H](O)CC1=CC[C@@H]1[C@@H]2CC[C@]2(C)C(=O)CC[C@@H]12 [dehydroepiandrosterone]
In vitro release of dehydroepiandrosterone ([1]; 6 hours): 20 weight percent
In vitro release of dehydroepiandrosterone ([1]; 10.5 hours): 30 weight percent
In vitro release of dehydroepiandrosterone ([1]; 13 hours): 40 weight percent
In vitro release of dehydroepiandrosterone ([1]; 23 hours): 50 weight percent

CN1C(C(=O)Nc2ccccn2)=C(O)c2ccccc2S1(=O)=O [piroxicam]
In vitro release of therapeutic agent ([1]; Example 9 carrier, 20 mg piroxicam, 6 hours): 24.1 weight percent
In vitro release of therapeutic agent ([1]; Example 9 carrier, 20 mg piroxicam, 23 hours): 56 weight percent
In vitro release of therapeutic agent ([1]; Example 9 carrier, 20 mg piroxicam, one hour): 5 weight percent
Order of release ([1]; Example 9 carrier, piroxicam): apparent zero order rate
solubility [3]: ~7700 µg/mL (≈ 23.2 mM)
In vitro release of therapeutic agent ([2]; Example 9 carrier, three hours): 13 weight percent
In vitro release of therapeutic agent ([2]; Example 9 carrier, two hours): 9 weight percent
Therapeutic agent remaining in the carrier ([2]; Example 9 carrier, piroxicam, after 23 hours): 36-47 weight percent
